Species: Rattus norvegicus
Assay type: toxicity, organism-based, Sprague-Dawley
Conditions: in vivo, ip, 0 mg/kg, 24 h, vehicle control, route intraperitoneal, dose level Control, time 1 day, vehicle .1 % RSA/SALINE
Description: DrugMatrix - Regimen: Single

## INTERLEUKIN 6, RAT
Tissue Blood
  ABSOLUTE EOSINOPHIL: 109.33 CELLS/uL
  ABSOLUTE LYMPHOCYTE: 13180.67 CELLS/uL
  ABSOLUTE MONOCYTE: 354 CELLS/uL
  ABSOLUTE SEGMENTED NEUTROPHIL: 1756 CELLS/uL
  BASOPHIL: 0%
  EOSINOPHIL: 0.67%
  ERYTHROCYTE COUNT: 5.38 x10E6/uL
  HEMOGLOBIN: 12.57 G/DL
  LEUKOCYTE COUNT: 15.4 x10E3/uL
  LYMPHOCYTE: 85%
  MEAN CORPUSCULAR HEMOGLOBIN: 23.37 pg
  MEAN CORPUSCULAR HEMOGLOBIN CONCENTRATION: 38.3 G/DL
  NEUTROPHIL: 12%
  NUCLEATED RED BLOOD CELLS: 0 /100WBC
  PLATELET COUNT: 832.33 x10E3/uL
Tissue Plasma
  ALANINE AMINOTRANSFERASE: 37.33 u/L
  ALBUMIN: 4 G/DL
  ALKALINE PHOSPHATASE: 344.67 u/L
  ASPARTATE AMINOTRANSFERASE: 69.33 u/L
  BLOOD UREA NITROGEN: 13.67 mg/dL
  CARBON DIOXIDE: 28.33 mmol/L
  CHLORIDE: 99.67 MEQ/L
  CHOLESTEROL: 73.67 mg/dL
  CREATINE PHOSPHOKINASE: 270 u/L
  CREATININE: 0.19 mg/dL
  GLUCOSE: 176.33 mg/dL
  LACTATE DEHYDROGENASE: 160 u/L
  PHOSPHORUS: 13.47 mg/dL
  POTASSIUM: 6.77 MEQ/L
  TOTAL BILIRUBIN: 0.13 mg/dL
  TOTAL PROTEIN: 6.07 G/DL
  URIC ACID: 1.87 mg/dL

Source: ChEMBL document CHEMBL3885881, “DrugMatrix”
